# Tests used:
# Cyclin K = conditions: cited from earlier work
# CCNK = assay: NanoLuc-CCNK degradation assay (HEK293T_Nluc_CCNK-tagged cells); type: cell-based; conditions: 4 h incubation, HEK293T_Nluc_CCNK-tagged cells; read-out: NanoLuc-CCNK degradation DC50 Activity Class
# Summary of the method: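 HEK293T cells with nanoluciferase knocked in at the N-terminus of endogenous CCNK (CRISPR) exposed to a 10-point titration (0 to 10 μM, 1:4) in Opti-MEM I + 4% FBS for 4 h. Nano-Glo substrate then added and luminescence read as a measure of Cyclin K abundance.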
# KBM7 cells (wild-type) = assay: KBM7 CTG EC50 assay (UBE2M wild-type); type: cell-based, human
# Summary of the method: (§1)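 Wild-type KBM7 cells, or KBM7 cells with a hypomorphic UBE2M mutation that impairs Cullin-RING ligase activity, were treated for 72 h with compounds in a 10-point, 1:4 titration (0 to 20 μM). Viability was read by CellTiter-Glo 2.0 luminescence.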
# [1] = target: T1, DDB1-CDK12/Cyclin K ternary complex (Homo sapiens, UniProt Q16531+Q9NYV4); assay: NanoBRET EC50 assay (HaloTag_CDK12 / NanoLuc_DDB1 in HEK293T); type: cell-based
# T1 construct: expressed in transfected cells; host or cells: HEK293T wildtype cells, transient PEI transfection
# T1 sequence (Q9NYV4 whole entry): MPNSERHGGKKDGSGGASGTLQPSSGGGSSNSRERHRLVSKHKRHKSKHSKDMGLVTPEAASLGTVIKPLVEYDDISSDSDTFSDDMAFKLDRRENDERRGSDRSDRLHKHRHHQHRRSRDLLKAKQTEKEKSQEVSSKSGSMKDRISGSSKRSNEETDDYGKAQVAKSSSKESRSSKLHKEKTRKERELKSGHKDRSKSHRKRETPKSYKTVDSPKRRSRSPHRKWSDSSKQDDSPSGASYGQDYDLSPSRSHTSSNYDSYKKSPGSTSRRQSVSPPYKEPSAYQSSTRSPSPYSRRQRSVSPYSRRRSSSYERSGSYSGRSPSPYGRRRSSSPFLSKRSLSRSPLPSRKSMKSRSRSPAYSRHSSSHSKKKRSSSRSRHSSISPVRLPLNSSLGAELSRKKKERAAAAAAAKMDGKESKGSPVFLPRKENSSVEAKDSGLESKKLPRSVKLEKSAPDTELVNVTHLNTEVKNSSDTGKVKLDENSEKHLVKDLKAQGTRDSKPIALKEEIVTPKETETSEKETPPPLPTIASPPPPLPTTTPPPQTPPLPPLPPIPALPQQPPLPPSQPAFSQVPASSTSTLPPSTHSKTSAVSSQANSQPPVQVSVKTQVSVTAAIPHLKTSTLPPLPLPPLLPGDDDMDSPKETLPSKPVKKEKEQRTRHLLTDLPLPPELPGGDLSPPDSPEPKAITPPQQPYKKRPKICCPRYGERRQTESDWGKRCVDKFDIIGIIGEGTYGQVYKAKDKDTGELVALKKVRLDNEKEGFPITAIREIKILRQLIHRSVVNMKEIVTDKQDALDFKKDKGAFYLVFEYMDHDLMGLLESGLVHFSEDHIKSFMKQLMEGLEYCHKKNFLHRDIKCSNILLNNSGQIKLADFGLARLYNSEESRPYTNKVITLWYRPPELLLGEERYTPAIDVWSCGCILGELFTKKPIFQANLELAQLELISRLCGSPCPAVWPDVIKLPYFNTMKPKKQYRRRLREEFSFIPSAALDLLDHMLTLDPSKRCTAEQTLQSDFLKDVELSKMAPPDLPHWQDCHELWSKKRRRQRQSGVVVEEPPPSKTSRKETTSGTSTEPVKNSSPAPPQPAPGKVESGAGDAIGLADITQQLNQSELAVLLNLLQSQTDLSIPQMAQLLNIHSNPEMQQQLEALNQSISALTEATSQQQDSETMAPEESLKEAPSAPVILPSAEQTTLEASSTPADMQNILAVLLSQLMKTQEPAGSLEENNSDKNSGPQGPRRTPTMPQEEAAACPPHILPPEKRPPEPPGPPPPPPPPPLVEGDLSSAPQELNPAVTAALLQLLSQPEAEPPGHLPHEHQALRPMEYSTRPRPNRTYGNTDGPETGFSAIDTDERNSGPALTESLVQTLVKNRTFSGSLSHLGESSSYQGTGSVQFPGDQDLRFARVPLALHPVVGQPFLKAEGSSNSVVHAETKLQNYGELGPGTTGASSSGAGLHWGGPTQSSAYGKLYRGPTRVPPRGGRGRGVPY
# T1 sequence (Q16531 whole entry): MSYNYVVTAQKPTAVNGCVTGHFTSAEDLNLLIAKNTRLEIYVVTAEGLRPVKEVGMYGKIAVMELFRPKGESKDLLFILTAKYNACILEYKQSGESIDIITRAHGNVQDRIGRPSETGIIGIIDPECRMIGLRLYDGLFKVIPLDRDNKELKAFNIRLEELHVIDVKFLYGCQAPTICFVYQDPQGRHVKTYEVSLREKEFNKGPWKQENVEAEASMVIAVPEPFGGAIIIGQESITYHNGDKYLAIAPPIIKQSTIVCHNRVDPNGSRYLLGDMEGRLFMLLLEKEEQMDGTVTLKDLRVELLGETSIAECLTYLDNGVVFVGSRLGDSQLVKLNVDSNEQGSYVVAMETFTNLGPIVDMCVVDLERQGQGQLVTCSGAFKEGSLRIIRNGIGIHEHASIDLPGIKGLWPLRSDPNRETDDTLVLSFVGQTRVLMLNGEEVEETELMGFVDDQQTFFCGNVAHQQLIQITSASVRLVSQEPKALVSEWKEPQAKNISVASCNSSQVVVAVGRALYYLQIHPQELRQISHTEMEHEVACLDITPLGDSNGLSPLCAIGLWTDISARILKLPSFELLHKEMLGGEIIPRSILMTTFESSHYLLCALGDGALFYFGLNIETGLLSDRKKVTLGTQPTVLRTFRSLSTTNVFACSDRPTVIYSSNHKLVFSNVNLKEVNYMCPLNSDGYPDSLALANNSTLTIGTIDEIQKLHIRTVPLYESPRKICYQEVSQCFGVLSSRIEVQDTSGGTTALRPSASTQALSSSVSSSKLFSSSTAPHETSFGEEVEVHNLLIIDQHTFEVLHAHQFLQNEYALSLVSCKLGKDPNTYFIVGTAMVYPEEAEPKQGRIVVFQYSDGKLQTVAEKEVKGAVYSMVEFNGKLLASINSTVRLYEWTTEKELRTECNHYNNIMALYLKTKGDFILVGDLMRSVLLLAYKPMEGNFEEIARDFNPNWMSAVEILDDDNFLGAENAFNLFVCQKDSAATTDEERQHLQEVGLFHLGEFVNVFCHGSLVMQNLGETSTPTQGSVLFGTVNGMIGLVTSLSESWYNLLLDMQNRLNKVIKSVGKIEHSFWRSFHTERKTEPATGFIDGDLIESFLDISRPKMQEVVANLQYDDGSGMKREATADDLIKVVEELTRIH
# T1 sequence (O75909 whole entry partner): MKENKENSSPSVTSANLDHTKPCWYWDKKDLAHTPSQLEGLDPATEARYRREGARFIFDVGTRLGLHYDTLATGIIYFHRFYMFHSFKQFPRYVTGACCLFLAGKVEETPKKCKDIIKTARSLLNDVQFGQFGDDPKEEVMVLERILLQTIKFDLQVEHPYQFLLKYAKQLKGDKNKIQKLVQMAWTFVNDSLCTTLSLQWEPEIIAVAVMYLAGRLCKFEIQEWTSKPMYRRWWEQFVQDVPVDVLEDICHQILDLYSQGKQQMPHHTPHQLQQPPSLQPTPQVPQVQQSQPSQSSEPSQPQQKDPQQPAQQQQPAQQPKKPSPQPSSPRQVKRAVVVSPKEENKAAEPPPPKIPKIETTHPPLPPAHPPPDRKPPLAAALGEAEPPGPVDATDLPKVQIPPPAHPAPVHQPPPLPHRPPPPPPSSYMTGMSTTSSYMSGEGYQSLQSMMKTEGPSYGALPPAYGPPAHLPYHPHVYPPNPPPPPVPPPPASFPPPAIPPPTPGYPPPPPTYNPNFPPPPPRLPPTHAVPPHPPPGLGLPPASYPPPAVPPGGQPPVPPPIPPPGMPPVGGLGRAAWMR
# Summary of the method: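 DDB1–CDK12/Cyclin K recruitment measured by NanoBRET in HEK293T transiently co-transfected with HaloTag_CDK12 and NanoLuc_DDB1 and labelled overnight with 100 nM HaloTag 618 ligand. Compounds titrated 10-point, 1:4 from 20 μM, 10 min at room temperature. Donor 460 nm and acceptor 647 nm emission read after Nano-Glo substrate.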
# [2] = target: T1, DDB1-CDK12/Cyclin K ternary complex; assay: NanoBRET fold-change assay (HaloTag_CDK12 / NanoLuc_DDB1 in HEK293T); type: cell-based; conditions: 10 μM compound, 10 minutes
# Summary of the method: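 HEK293T cells transiently co-transfected with HaloTag_CDK12 and NanoLuc_DDB1, labelled overnight with 100 nM HaloTag 618 ligand (DMSO no-ligand control), then treated with compound at 10 μM final for 10 min at room temperature. BRET read as 460 nm donor and 647 nm acceptor emission after Nano-Glo substrate; reported as fold change.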
# [3] = target: T2, Cdk12 (696-1,082)/CycK (1-267) protein complex (Homo sapiens, UniProt Q9NYV4); assay: Cdk12 [high ATP] in vitro kinase activity assay; type: biochemical; conditions: physiological ATP concentrations (1 mM ATP), 50 μM compound
# T2 construct: Cdk12 (696-1,082)/CycK (1-267) protein complex
# T2 sequence (Q9NYV4 696-1082 limits assumed): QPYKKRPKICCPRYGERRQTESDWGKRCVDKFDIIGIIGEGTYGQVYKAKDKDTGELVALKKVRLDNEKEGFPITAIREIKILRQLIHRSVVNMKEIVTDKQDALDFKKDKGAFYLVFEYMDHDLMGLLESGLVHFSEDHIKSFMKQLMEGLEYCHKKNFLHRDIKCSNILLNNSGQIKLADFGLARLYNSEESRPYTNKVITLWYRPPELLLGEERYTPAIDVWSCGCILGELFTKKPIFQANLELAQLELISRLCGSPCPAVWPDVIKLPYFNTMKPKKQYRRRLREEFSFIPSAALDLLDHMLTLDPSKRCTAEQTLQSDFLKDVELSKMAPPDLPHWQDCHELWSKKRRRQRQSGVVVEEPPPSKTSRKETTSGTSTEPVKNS
# T2 sequence (O75909 1-267 partner limits assumed): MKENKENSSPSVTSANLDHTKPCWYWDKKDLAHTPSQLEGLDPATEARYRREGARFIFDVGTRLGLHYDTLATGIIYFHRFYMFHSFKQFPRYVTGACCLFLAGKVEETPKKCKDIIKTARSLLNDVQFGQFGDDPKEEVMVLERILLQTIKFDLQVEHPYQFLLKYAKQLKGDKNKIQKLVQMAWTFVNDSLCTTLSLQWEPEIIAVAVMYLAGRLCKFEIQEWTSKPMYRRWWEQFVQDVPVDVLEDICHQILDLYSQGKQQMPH
# Method: This assay on recombinant proteins allows assessment of the extent of inhibition of CDK12 kinase activity of compounds. The added benefit of Cyclin K degradation as opposed to CDK12 inhibition alone can thereby be estimated. The observed disconnect between CDK12 inhibition and efficacy in the KBM7 cell viability assay supports an important contribution of Cyclin K degradation to the therapeutic effect.
# Kinase reactions (50 μl) were carried out with recombinant highly purified proteins. Cdk12 (696-1,082)/CycK (1-267) protein complex (0.5 μM) was preincubated with 50 μM of compound and vehicle control (DMSO) for 10 minutes at room temperature in kinase buffer (40 mM Tris pH 7.5, 20 mM MgCl2, 0.1 mg/ml BSA) prior the addition of pS7-CTD substrate peptide (Ac-YSPTSP-pS-YSPTSP-pS-YSPTSP-pS-Y-PEG2-RR-amide, 95% purity, Biosyntan, Germany) (100 μM) and further 10 min incubation at room temperature. Cold ATP (to a final concentration of 1 mM) was added, and the reaction mixture was incubated for 60 min at 30° C. at 500 rpm. Kinase activity was determined using the ADP-Glo™ Kinase Assay (Promega). The luminescence signal was measured using the multimode plate reader EnVision 2105 (Perkin Elmer).
# Uniprot protein codes: (Cdk12) Q9NYV4, (CycK) 075909
# [4] = system: KBM7 cells harboring a hypomorphic UBE2M mutation; assay: KBM7 CTG EC50 assay (UBE2M knock-out); type: cell-based; conditions: Homo sapiens, KBM-7; 72 h incubation, CellTiter-Glo; read-out: KBM7 CTG EC50 (UBE2M knock-out) Activity Class
# Summary of the method: as §1
# [5] = target: Nanoluc_DDB1 (N-terminal Nanoluc luciferase, G4S linker, DDB1 (FL)) (UniProt Q16531); assay: NanoBRET in HEK293T cells, 10 µM compound Example 3-48; class B = 3-4 fold increase
# Chain of Nanoluc_DDB1 (N-terminal Nanoluc luciferase, G4S linker, DDB1 (FL)) (Q16531 other isoform, or with tags, fused parts or gaps): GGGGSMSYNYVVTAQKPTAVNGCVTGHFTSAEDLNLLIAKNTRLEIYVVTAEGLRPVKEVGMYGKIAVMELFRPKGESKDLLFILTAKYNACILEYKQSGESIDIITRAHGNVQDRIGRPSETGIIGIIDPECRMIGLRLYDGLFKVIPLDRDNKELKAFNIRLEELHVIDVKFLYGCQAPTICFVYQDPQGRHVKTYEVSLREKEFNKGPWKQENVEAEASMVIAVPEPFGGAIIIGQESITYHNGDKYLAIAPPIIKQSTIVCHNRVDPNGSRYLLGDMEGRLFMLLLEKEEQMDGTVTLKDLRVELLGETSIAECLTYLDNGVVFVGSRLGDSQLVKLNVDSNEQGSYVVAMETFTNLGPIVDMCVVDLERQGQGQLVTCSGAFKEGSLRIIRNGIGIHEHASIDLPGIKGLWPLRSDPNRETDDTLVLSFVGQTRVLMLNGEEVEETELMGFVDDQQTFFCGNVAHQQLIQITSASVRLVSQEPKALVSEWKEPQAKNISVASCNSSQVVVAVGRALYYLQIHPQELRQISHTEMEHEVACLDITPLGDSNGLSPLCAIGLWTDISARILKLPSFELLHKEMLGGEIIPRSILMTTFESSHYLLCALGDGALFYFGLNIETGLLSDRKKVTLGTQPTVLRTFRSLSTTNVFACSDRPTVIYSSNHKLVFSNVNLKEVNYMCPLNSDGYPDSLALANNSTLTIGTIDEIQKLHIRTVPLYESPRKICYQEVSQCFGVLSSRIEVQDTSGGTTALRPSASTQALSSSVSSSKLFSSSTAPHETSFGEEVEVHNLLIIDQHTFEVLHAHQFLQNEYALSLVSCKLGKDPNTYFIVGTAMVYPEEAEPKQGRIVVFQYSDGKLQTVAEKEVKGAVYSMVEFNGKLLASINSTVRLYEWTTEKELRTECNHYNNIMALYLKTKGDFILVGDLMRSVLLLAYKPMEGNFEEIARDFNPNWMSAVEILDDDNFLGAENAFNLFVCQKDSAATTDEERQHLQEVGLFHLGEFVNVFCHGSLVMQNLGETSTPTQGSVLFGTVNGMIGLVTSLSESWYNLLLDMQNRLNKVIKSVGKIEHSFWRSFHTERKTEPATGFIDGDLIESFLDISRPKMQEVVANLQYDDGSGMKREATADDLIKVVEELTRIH
compound,measurement,setting,value
CN(C)C/C=C/C(=O)Nc1ccc(C(=O)N2CCC[C@@H](Nc3ncc(Cl)c(-c4c[nH]c5ccccc45)n3)C2)cc1 [THZ-531],"Cyclin K degradation, in words",Cyclin K,did not cause cyclin K degradation
CC[C@H](CO)Nc1nc(NCc2ccc(-c3ccccn3)cc2)c2ncn(C(C)C)c2n1 [CR8],"Cyclin K degradation, in words",Cyclin K,cause Cyclin K degradation
"O=C(Cc1cnc2ccccc2c1)Nc1ncc(C(F)(F)F)s1 [Example 3-36, 2-(quinolin-3-yl)-N-(5-(trifluoromethyl)thiazol-2-yl)acetamide]",DC50,CCNK,≤ 100 nM
same,EC50,"KBM7 cells (wild-type); Homo sapiens, KBM-7, 72 h incubation, CellTiter-Glo, read-out: KBM7 CTG EC50 (UBE2M wild-type) Activity Class",≤ 250 nM
same,"activity in KBM7 cytotoxicity assay, in words",KBM7 cells (wild-type); KBM7,extremely potent activity
same,"activity in NanoBRET assay (ternary complex formation), in words",[1],good activity
same,NanoBRET EC50 Activity Class,"[1]; 10-point titration from 20 μM, HEK293T",B (0.50 μM≤EC50≤0.25 μM)
same,NanoBRET fold-change Activity Class,[2],C (2-3 fold increase)
same,"Cdk12 inhibition, in words",[3],weak Cdk12 inhibition
same,EC50,[4],≤ 250 nM
"HaloTag_CDK12 (N-terminal HaloTag, G4S linker, CDK12 (713-1052)) (from UniProt Q9NYV4 713-1052) (HEK293T cells)",NanoBRET fold increase,[5],3 to 4 fold
